US7135303B2, “Regulators of type-1 tumor necrosis factor receptor and other cytokine receptor shedding” (The United States of America as represented by the …, priority 2000, dated 2006)
“Also recorded” adds a separate entry of the source.

B1: ARTS-1: aminopeptidase regulator of type I, 55 kDa tumor necrosis factor receptor ectodomain shedding; 941 amino acids, SEQ ID NO:2; overexpressed from pTarget (protein, listed as Homo sapiens)
chain: MVFLPLKWSLATMSFLLSSLLALLTVSTPSWCQSTEASPKRSDGTPFPWNKIRLPEYVIPVHYDLLIHANLTTLTFWGTTKVEITASQPTSTIILHSHHLQISRATLRKGAGERLSEEPLQVLEHPRQEQIALLAPEPLLVGLPYTVVIHYAGNLSETFHGFYKSTYRTKEGELRILASTQFEPTAARMAFPCFDEPAFKASFSIKIRREPRHLAISNMPLVKSVTVAEGLIEDHFDVTVKMSTYLVAFIISDFESVSKITKSGVKVSVYAVPDKINQADYALDAAVTLLEFYEDYFSIPYPLPKQDLAAIPDFQSGAMENWGLTTYRESALLFDAEKSSASSKLGITMTVAHELAHQWFGNLVTMEWWNDLWLNEGFAKFMEFVSVSVTHPELKVGDYFFGKCFDAMEVDALNSSHPVSTPVENPAQIREMFDDVSYDKGACILNMLREYLSADAFKSGIVQYLQKHSYKNTKNEDLWDSMASICPTDGVKGMDGFCSRSQHSSSSSHWHQEGVDVKTMMNTWTLQKGFPLITITVRGRNVHMKQEHYMKGSDGAPDTGYLWHVPLTFITSKSDMVHRFLLKTKTDVLILPEEVEWIKFNVGMNGYYIVHYEDDGWDSLTGLLKGTHTAVSSNDRASLINNAFQLVSIGKLSIEKALDLSLYLKHETEIMPVFQGLNELIPMYKLMEKRDMNEVETQFKAFLIRLLRDLIDKQTWTDEGSVSERMLRSQLLLLACVHNYQPCVQRAEGYFRKWKESNGNLSLPVDVTLAVFAVGAQSTEGWDFLYSKYQFSLSSTEKSQIEFALCRTQNKEKLQWLLDESFKGDKIKTQEFPQILTLIGRNPVGYPLAWQFLRKNWNKLVQKFELGSSSIAHMVMGTTNQFSTRTRLEEVKGFFSSLKENGSQLRCVQQTIETIEENIGWMDKNFDKIRVWLQSEKLERM
notes: aminopeptidase regulator of type I, 55 kDa tumor necrosis factor receptor ectodomain shedding; overexpressed from pTarget

Key:
Assay type in all cases: cell-based, human
[1] = test system: ARTS-1 protein in NCI-H292 cells; assay: Drug screening: ARTS-1 protein expression by Western immunoblot of membrane protein fractions; details: 0.1 μM PMA, 0 to 24 hours, membrane protein fraction
Experimental: In another embodiment of the screening method of the present invention, Western immunoblotting is used to assess the levels of ARTS-1 protein following exposure of a cell culture to a test compound. In this embodiment, cultured cells were exposed to a test compound, in this case, 4b-phorbol 12-myristate 13-acetate (PMA), and samples of tissue were collected at 0, 2, 8 and 24 hours following the exposure. Membrane proteins were isolated from these cells and subjected to Western immunoblot analysis, as described in Examples 4 and 5, using antiserum specific for the ARTS-1 protein. […] It is contemplated that compounds that can upregulate ARTS-1 protein levels are therapeutically advantageous, as such compounds can suppress a proinflammatory immune response by enhancing receptor ectodomain shedding. However, an understanding of the mechanism(s) is not required in order to use the present invention. […]
In the first method, cultured human NCI-H292 pulmonary mucoepidermoid carcinoma cells were exposed to a test compound, in this case, 4b-phorbol 12-myristate 13-acetate (PMA) at a concentration of 0.1 μM. […] The protein samples were analyzed in a Western immunoblot using the anti-ARTS-1 antiserum at the primary detection antibody, as described in Examples 4 and 5. The protein fractions were analyzed in duplicate, and the relative densitometry units for each lane are shown beneath the columns. […]

[2] = test system: TNFR1 ectodomain shedding in NCI-H292 cells; assay: TNFR1 ectodomain shedding assay (sTNFR1 sandwich ELISA of cell culture supernatants); details: for sTNFR1 in cell culture supernatant following PMA treatment: 24 hours
Experimental: The amount of TNFR1 ectodomain shedding occurring in each of these cell lines is depicted in FIG. 8. The levels of sTNFR1 ectodomain in cell culture supernatants from these cell lines were assayed using a commercially available sandwich-enzyme-linked immunosorbent assay (ELISA) technique (R & D Systems) with a lower limit of detection of 7.8 pg/ml.
Following the introduction and selection of these constructs in the host cell lines, the amount of TNFR1 ectodomain shedding occurring in each of the lines was determined by measuring the levels of sTNFR1 ectodomain in cell culture supernatants using a commercially available sandwich-enzyme-linked immunosorbent assay (ELISA) technique (R & D Systems) with a lower limit of detection of 7.8 pg/ml.
The amount of TNFR1 ectodomain shedding occurring in each of the stably transfected cell lines described in Example 9 was assessed. The levels of sTNFR1 ectodomain in cell culture supernatants from these cell lines were assayed by a commercially available sandwich-enzyme-linked immunosorbent assay (ELISA) technique (R & D Systems) with a lower limit of detection of 7.8 pg/ml. The protocol used was according to the manufacturer's instructions. The results of this assay are depicted in FIG. 8 as the mean of 5 independent experiments, with accompanying SEM (standard error of the mean) indicated above the bar.
A similar experiment analyzing the ability of ARTS-1 overexpression to potentiate the cleavage and shedding of TNFR ectodomain from the surface of NCI-H292 cells in response to PMA stimulation using these same cell lines is shown in FIG. 9.
This assay was further used to measure the sTNFR1 ectodomain shedding activity of ARTS-1 peptidase/protease catalytic mutants. The construction of these mutations (and resulting mutant cell lines) are described in Example 10. The ability of theses mutants to regulate sTNFR1 shedding was ascertained by measuring the concentration of sTNFR1 in the cell culture supernatant as described above in this Example.
Results from a second screening method are illustrated in FIG. 14, Panel B. In this screening method, cultured human NCI-H292 pulmonary mucoepidermoid carcinoma cells were again exposed to a test compound, PMA, at a concentration of 0.1 μM. Culture medium supernatant was collected from the cultures at intervals between 0 and 24 hours post treatment. The samples were analyzed by the TNFR1 ectodomain shedding assay using an ELISA as described in Example 11. In this assay, anti-sTNFR1 antibody was used to quantitate the concentrations of sTNFR1 in the cell culture supernatants. […] Thus, this screening method also identified a compound that is a candidate for further drug development.

[3] = test system: membrane-associated TNFR1 in NCI-H292 cells; assay: Membrane-associated TNFR1 by Western immunoblot of crude membrane fractions of stably transfected cells
Experimental: The degree of TNFR1 ectodomain shedding as a function of ARTS-1 protein expression was also assessed indirectly by determining the relative amounts of membrane-bound TNFR1 fragment in each of the stably transfected cell lines described above using the Western immunoblotting technique described in Example 5. Crude membrane fractions from the stably transfected NCI-H292 cells described in Example 9 were prepared and resolved by SDS-PAGE and analyzed by Western immunoblotting using a murine anti-human TNFR1 monoclonal primary antibody (R & D System) which detects the membrane fragment of the TNF receptor.
The degree of TNFR1 ectodomain shedding as a function of ARTS-1 protein expression was also indirectly assessed by determining the relative amounts of membrane-bound TNFR1 fragment in each of the stably transfected cell lines described in Example 9 using Western immunoblotting.
Crude membrane fractions from the stably transfected NCI-H292 cells described in Example 9 were prepared and protein concentrations were quantitated, as described above. Samples from these membrane-derived protein preparations were resolved by SDS-PAGE and analyzed by Western immunoblotting as described above in Example 5 using a murine anti-human TNFR1 monoclonal primary antibody which detected the membrane fragment of the receptor (R & D System). […]

Row | Molecule | ARTS-1 protein expression [1] | sTNFR1 in cell culture supernatant following PMA treatment ([2]; 0.1 μM PMA, NCI-H292 cell line containing only the empty pTarget vector) [pg/mL] | sTNFR1 in cell culture supernatant following PMA treatment ([2]; 0.1 μM PMA, NCI-H292 cell line overexpressing the ARTS-1 cDNA) [pg/mL] | sTNFR1 shedding compared to a control culture ([2]; NCI-H292 cells, 0.1 μM PMA, over the course of 24 hours, n=5, P<0.05) | increase in sTNFR1 shedding ([2]; overexpression of ARTS-1 protein in stably transfected NCI-H292 cells vs Mock or WT controls) | level of sTNFR1 in cell culture supernatant compared to control cell lines (WT, Mock) ([2]; stably transfected NCI-H292 cell lines, mean of 5 independent experiments) | membrane-associated TNFR1 relative to WT or Mock cell lines [3]
1 | CCCCCCCCCCCCCC(=O)O[C@@H]1[C@@H](C)[C@@]2(O)[C@@H](C=C(CO)C[C@]3(O)C(=O)C(C)=C[C@@H]23)[C@@H]2C(C)(C)[C@]12OC(C)=O [PMA, 4b-phorbol 12-myristate 13-acetate] | upregulation of ARTS-1 protein expression; also recorded: increase in ARTS-1 protein expression | 415.3 ± 4.5 | 914.2 ± 9.5 | increase in sTNFR1 shedding | – | – | –
2 | B1 | – | – | – | – | approximately 200% | significant increase; also recorded: significantly elevated level of sTNFR1 | decrease
